Experimental data as given in patent US20210330611A1, “THERAPY FOR NEUROLOGICAL DISEASES/DISORDERS” (priority 2020, published 2021).
pIC50: −log10 of the molar value. Several values for one entry are separate records, joined by “and”; a condition that tells them apart may be missing. Equal entries are not always repeated. Structures can show the parent of a compound that is named as a salt. Where two headings read alike, the source gives them in different places.

What was measured:
Type in all cases: cell-based, rat
[1] = system: fibrin-induced microglia activation; experiment: Image-based assay of fibrin-induced microglia activation (HTS and dose response); details: for inhibition at 10 µM: read-out: Fibrin % inhibition
[2] = system: LPS-induced microglia activation; experiment: Image-based assay of LPS-induced microglia activation (HTS and dose response); details: for inhibition at 10 µM: read-out: LPS % inhibition
[3] = system: fibrin- and LPS-induced microglia activation; experiment: cells
[4] = Rattus norvegicus, Microglia, Table 7, read-out: fib_IC50
[5] = Rattus norvegicus, Microglia, Table 7, read-out: LPS_IC50
[6] = Table 7, fib = fibrin, LPS, tox = toxicity
[7] = primary microglia HTS, fibrin stimulation, compounds at 10 μM
[8] = primary microglia HTS, LPS stimulation, compounds at 10 μM
[9] = quadrant by fibrin and LPS inhibition, HTS at 10 μM
[10] = Rattus norvegicus, Microglia, primary microglia HTS, fibrin stimulation, increased cell size (>800 μm^2) as marker of activation
[11] = Rattus norvegicus, Microglia, 48 h, primary microglia HTS, LPS stimulation, increased cell size (>800 μm^2) as marker of activation
[12] = quadrant by fibrin and LPS inhibition in HTS of 1907 compounds
[13] = Rattus norvegicus, Microglia, primary microglia HTS, fibrin stimulation, compounds at 10 μM
[14] = Rattus norvegicus, Microglia, primary microglia HTS, LPS stimulation, compounds at 10 μM
[15] = classification by fibrin and LPS inhibition, HTS at 10 μM
[16] = Rattus norvegicus, Microglia, 48 h

CC(C)NCC(O)COc1cccc2ccccc12 (centres unmarked)
Fibrin % inhibition ([1]; 10 µM): −18%
inhibition at 10 µM ([2]; Rattus norvegicus, Microglia): -5%
Quadrant (FIG. 5b) [3]: Q4

CC(C)CCCCCOC(=O)COc1ccc(Cl)cc1Cl
pIC50 [1, 4]: 6.04
pIC50 [2, 5]: 6.00
Activity [3, 6]: fib/LPS

Cc1cc(C(C)(C)C)c(O)c(C(C)(C)C)c1
Fibrin % inhibition [1, 7]: −4%
LPS % inhibition [2, 8]: 5%
Quadrant (FIG. 5b) [3, 9]: Q4

O=C(O)c1nc2cc(Cl)c(Cl)cc2nc1O
pIC50 [1, 4]: 5.58
pIC50 [2, 5]: ≤ 5.30
Activity [3, 6]: fib/LPS

C[C@H](N)[C@H](O)c1ccccc1.Cl
Fibrin % inhibition [1]: −15%
LPS % inhibition [2]: 7%
Quadrant (FIG. 5b) [3]: Q4

C[C@@H]([C@H](O)c1ccccc1)N(C)C
Fibrin % inhibition [1, 7]: −52%
LPS % inhibition [2, 8]: 7%
Quadrant (FIG. 5b) [3, 9]: Q4

CCCCC(C)(O)C/C=C/[C@H]1[C@H](O)CC(=O)[C@@H]1CCCCCCC(=O)OC (mixture of isomers) [Misoprostol]
inhibition at 10 µM [1, 10]: 13%
inhibition at 10 µM [2, 11]: 32%
Quadrant (FIG. 5b) [3, 12]: Q4

O=c1c(-c2ccccc2)coc2cc(O)cc(O)c12 [5,7-dihydroxyisoflavone]
pIC50 [1, 4]: 6.76
pIC50 [2, 5]: 7.68
Activity [3, 6]: fib/LPS

CC(=O)OCC(=O)[C@@]1(O)CC[C@H]2[C@@H]3C[C@H](C)C4=CC(=O)C=C[C@]4(C)[C@H]3[C@@H](O)C[C@@]21C [6alpha-methylprednisolone acetate]
fib specificity [1]: 1.0
fib_HS [1]: −0.26
LPS specificity [2]: 1.0
LPS_HS [2]: −0.40
Activity [3]: fib/LPS

C[C@H]1O[C@H](O[C@H]2[C@H](O)[C@@H](O)[C@@H](O[C@H]3[C@H](O)[C@@H](O)C(O)O[C@@H]3CO)O[C@@H]2CO)[C@H](O)[C@@H](O)[C@@H]1N[C@H]1C=C(CO)[C@@H](O)[C@H](O)[C@H]1O (some centres unmarked) [Acarbose]
inhibition at 10 µM [1, 13]: -22%
inhibition at 10 µM [1, 10]: 81%
inhibition at 10 µM [2, 11]: 62%
inhibition at 10 µM [2, 14]: -5%
Quadrant (FIG. 5b) [3, 12]: Q2
Quadrant (FIG. 5b) [3, 9]: Q4

O=C(O)COC(=O)Cc1ccccc1Nc1c(Cl)cccc1Cl [Aceclofenac]
inhibition at 10 µM [1, 13]: -2%
inhibition at 10 µM [2, 14]: 8%
Quadrant (FIG. 5b) [3, 9]: Q4

NCCCC(O)(P(=O)(O)O)P(=O)(O)O [Alendronic acid]
inhibition at 10 µM ([1]; Rattus norvegicus, Microglia): 5%
inhibition at 10 µM ([2]; Rattus norvegicus, Microglia): 18%
Quadrant (FIG. 5b) [3]: Q4

CC(=O)Oc1c(C)c(C)c2c(c1C)CCC(C)(CCCC(C)CCCC(C)CCCC(C)C)O2 (stereo not drawn) [Alpha-tochopheryl Acetate]
Fibrin % inhibition [1, 7]: 22%
LPS % inhibition [2, 8]: 8%
Quadrant (FIG. 5b) [3, 9]: Q4

CCCCc1oc2ccccc2c1C(=O)c1cc(I)c(OCCN(CC)CC)c(I)c1 [Amiodarone]
inhibition at 10 µM ([1]; Rattus norvegicus, Microglia): -4%
inhibition at 10 µM ([2]; Rattus norvegicus, Microglia): 13%
Quadrant (FIG. 5b) [3]: Q4

C/C=C/c1ccc(OC)cc1 [Anethole]
inhibition at 10 µM [1, 13]: -37%
inhibition at 10 µM [2, 14]: 13%
Quadrant (FIG. 5b) [3, 9]: Q4

COc1ccc(C(=O)N2CCCC2=O)cc1 [Aniracetam]
inhibition at 10 µM [1, 13]: 6%
inhibition at 10 µM [2, 14]: 4%
Quadrant (FIG. 5b) [3, 9]: Q4

CN1CCc2cccc3c2[C@H]1Cc1ccc(O)c(O)c1-3 [Apomorphine Hydrochloride]
inhibition at 10 µM ([1]; Rattus norvegicus, Microglia): 11%
inhibition at 10 µM ([2]; Rattus norvegicus, Microglia): -4%
Quadrant (FIG. 5b) [3]: Q4

COC(=O)C1=CCCN(C)C1 [Arecoline]
inhibition at 10 µM [1, 13]: 17%
inhibition at 10 µM [2, 14]: 14%
Quadrant (FIG. 5b) [3, 9]: Q4

O=C1O[C@H]([C@@H](O)CO)C(O)=C1O [Ascorbic Acid]
inhibition at 10 µM [1, 13]: -8%
inhibition at 10 µM [2, 14]: 12%
Quadrant (FIG. 5b) [3, 9]: Q4

CNCC[C@@H](Oc1ccccc1C)c1ccccc1 [Atomoxetine Hydrochloride]
inhibition at 10 µM [1, 13]: 15%
inhibition at 10 µM [2, 14]: 7%
Quadrant (FIG. 5b) [3, 9]: Q4

CC(C)c1c(C(=O)Nc2ccccc2)c(-c2ccccc2)c(-c2ccc(F)cc2)n1CC[C@@H](O)C[C@@H](O)CC(=O)[O-].CC(C)c1c(C(=O)Nc2ccccc2)c(-c2ccccc2)c(-c2ccc(F)cc2)n1CC[C@@H](O)C[C@@H](O)CC(=O)[O-].[Ca+2] [Atorvastatin calcium, reference compound]
pIC50 ([1]; read-out: Fibrin IC50): 6.22
IC50 ([1]; read-out: Fibrin IC50 (uM) (Suppl. Table 7)): 0.6 µM
LPS % inhibition [2]: 88%
pIC50 ([2]; read-out: LPS IC50): 5.52
IC50 ([2]; read-out: LPS IC50 (uM) (Suppl. Table 7)): 3 µM
Cherry-picked Hit (Suppl. Table 7) [3]: HIT (key: HIT: Hits were defined as molecules that exhibited greater than 50% inhibition of either fibrin or LPS activation)
Hit [3]: HIT (key: HIT: Hits were defined as molecules that exhibited greater than 50% inhibition of either fibrin or LPS activation)
Quadrant (FIG. 5b) [3]: Q2

CN1[C@@H]2CC[C@H]1C[C@@H](OC(=O)C(CO)c1ccccc1)C2 (some centres unmarked) [Atropine]
inhibition at 10 µM ([1]; Rattus norvegicus, Microglia): -21%
inhibition at 10 µM ([2]; Rattus norvegicus, Microglia): 4%

O=C(CCCN1CCN(c2ccccn2)CC1)c1ccc(F)cc1 [Azaperone]
inhibition at 10 µM [1, 13]: -4%
inhibition at 10 µM [2, 14]: 12%
Quadrant (FIG. 5b) [3, 9]: Q4

CC1=C(/C=C/C(C)=C/C=C/C(C)=C/C=C/C=C(C)/C=C/C=C(C)/C=C/C2=C(C)CCCC2(C)C)C(C)(C)CCC1 [Beta-carotene]
inhibition at 10 µM ([1]; Rattus norvegicus, Microglia): -15%
inhibition at 10 µM ([2]; Rattus norvegicus, Microglia): -3%
Quadrant (FIG. 5b) [3]: Q4

COc1ccccc1OCCNCC(O)COc1cccc2[nH]c3ccccc3c12 (centres unmarked) [Carvedilol, Carvedilol Phosphate]
LPS % inhibition ([2]; 10 µM): 15% and 19%
Quadrant (FIG. 5b) [3]: Q4

CC1=C(C(=O)O)N2C(=O)[C@@H](NC(=O)[C@H](N)c3ccccc3)[C@H]2SC1 [Cephalexin]
inhibition at 10 µM ([1]; Rattus norvegicus, Microglia): -1%
inhibition at 10 µM ([2]; Rattus norvegicus, Microglia): 17%
Quadrant (FIG. 5b) [3]: Q4

COCc1c(C(C)C)nc(C(C)C)c(/C=C/[C@@H](O)C[C@@H](O)CC(=O)O)c1-c1ccc(F)cc1 [Cerivastatin, Cerivastatin Na]
Fibrin % inhibition [1]: 103%
LPS % inhibition [2]: 101%
Quadrant (FIG. 5b) [3]: Q2

O=C(O)COCCN1CCN(C(c2ccccc2)c2ccc(Cl)cc2)CC1 (centres unmarked) [Cetirizine]
inhibition at 10 µM ([1]; Rattus norvegicus, Microglia): 5%
inhibition at 10 µM ([2]; Rattus norvegicus, Microglia): 0%
Quadrant (FIG. 5b) [3]: Q4

O=C(O)c1cn(C2CC2)c2cc(N3CCNCC3)c(F)cc2c1=O [Ciprofloxacin]
inhibition at 10 µM ([1]; Rattus norvegicus, Microglia): -30%
inhibition at 10 µM ([2]; Rattus norvegicus, Microglia): 17%

N.N.[Cl][Pt][Cl] [Cisplatin]
Fibrin % inhibition ([1]; primary HTS, 10 μM, fibrin-stimulated primary microglia): −13%
LPS % inhibition ([2]; primary HTS, 10 μM, LPS-stimulated primary microglia): 20%
Quadrant (FIG. 5b) ([3]; primary HTS, 10 μM): Q4

C[C@H]1O[C@@H](O[C@H]2[C@@H](O)C[C@H](O[C@H]3[C@@H](O)C[C@H](O[C@H]4CC[C@@]5(C)[C@H](CC[C@@H]6[C@@H]5C[C@@H](O)[C@]5(C)[C@@H](C7=CC(=O)OC7)CC[C@]65O)C4)O[C@@H]3C)O[C@@H]2C)C[C@H](O)[C@@H]1O [Digoxin]
Quadrant (FIG. 5b) [3]: Q3 and Q4

CC[C@H]1OC(=O)[C@H](C)[C@@H](O[C@H]2C[C@@](C)(OC)[C@@H](O)[C@H](C)O2)[C@H](C)[C@@H](O[C@@H]2O[C@H](C)C[C@H](N(C)C)[C@H]2O)[C@](C)(O)C[C@@H](C)C(=O)[C@H](C)[C@@H](O)[C@]1(C)O [Erythromycin]
inhibition at 10 µM [2, 14]: 20%
LPS % inhibition ([2]; primary microglia HTS, LPS stimulation, compounds at 10 μM, 10 µM): 13%
Quadrant (FIG. 5b) [3, 15]: Q4

C[C@]12CC[C@@H]3c4ccc(O)cc4C[C@@H](CCCCCCCCC[S+]([O-])CCCC(F)(F)C(F)(F)F)[C@H]3[C@@H]1CC[C@@H]2O (some centres unmarked) [Fulvestrant]
inhibition at 10 µM ([2]; Rattus norvegicus, Microglia, 48 h, primary microglia HTS, LPS stimulation, activation = cell size >800 μm2): 15%
Quadrant (FIG. 5b) [3, 12]: Q4

CN1[C@@H]2CC[C@H]1C[C@@H](OC(=O)[C@H](CO)c1ccccc1)C2 [Hyoscyamine]
inhibition at 10 µM [2, 16]: 13%

CN1CCCCC1CCN1c2ccccc2Sc2ccc([S+](C)[O-])cc21 (centres unmarked) [Mesoridazine]
inhibition at 10 µM ([1]; Rattus norvegicus, Microglia): -5%

OCc1cccnc1 [Nicotinyl Alcohol Tartrate]
inhibition at 10 µM [1, 10]: -5%
inhibition at 10 µM [2, 11]: 4%

C#CC1(O)CC[C@H]2[C@@H]3CCC4=CC(=O)CC[C@@H]4[C@H]3CC[C@@]21CC (some centres unmarked) [Norgestrel, Levonorgestrel]
Fibrin % inhibition ([1]; primary microglia HTS, fibrin stimulation, increased cell size (>800 μm^2) as marker of activation): 13%
LPS % inhibition ([2]; primary microglia HTS, LPS stimulation, increased cell size (>800 μm^2) as marker of activation): 14%

CCn1cc(C(=O)O)c(=O)c2cc(F)c(N3CCN(C)CC3)cc21 [Pefloxacin]
inhibition at 10 µM [2, 16]: 21%

CN1CCN(CCCN2c3ccccc3Sc3ccc(Cl)cc32)CC1 [Prochlorperazine dimaleate, reference compound]
Activity [3]: fib/LPS
Quadrant (FIG. 5b) [3]: Q4

Cc1cc2nc3c(=O)[nH]c(=O)nc-3n(C[C@H](O)[C@H](O)[C@H](O)CO)c2cc1C [Riboflavin]
Quadrant (FIG. 5b) [3]: Q4

CC(=O)S[C@@H]1CC2=CC(=O)CC[C@]2(C)[C@H]2CC[C@@]3(C)[C@@H](CC[C@@]34CCC(=O)O4)[C@H]12 [Spironolactone]
inhibition at 10 µM [2, 16]: 20%
Quadrant (FIG. 5b) [3]: Q4

Cc1cn([C@H]2C[C@H](N=[N+]=[N-])[C@@H](CO)O2)c(=O)[nH]c1=O [Zidovudine]
LPS % inhibition ([2]; 10 µM): 13%
inhibition at 10 µM ([2]; Rattus norvegicus, Microglia): 9%
Quadrant (FIG. 5b) [3]: Q4

Dimenhydrinate
Quadrant (FIG. 5b) [3, 15]: Q4
